Test results reported in publication PMC7230162, “Syntheses and Glycosidase Inhibitory Activities, and in Silico Docking Studies of Pericosine E Analogs Methoxy-Substituted at C6” (Marine Drugs, 2020).
Read-outs that look alike come from different tables or passages of the source.

Tests used:
[1] = target: β-glucosidase (Sweet Almond); experiment: β-glucosidase inhibitory activity assay (p-nitrophenyl-β-D-glucopyranoside); format: biochemical
Protocol: (§1) Infrared (IR) spectra were recorded on a 1720X Fourier transformation-infrared (FT-IR) spectrometer (Perkin Elmer, MA, USA) or an IRAffinity-1S FT-IR spectrometer (Shimadzu, Kyoto, Japan). High-resolution mass spectra (HRMS) were recorded on a JMS-700 (2) mass spectrometer (JEOL, Tokyo, Japan). Nuclear magnetic resonance (NMR) spectra were recorded at 27 °C on 400-MR-DD2 (Agilent Technologies, CA, USA) and 600-DD2 (Agilent Technologies, CA, USA) instruments in CDCl3 or acetone-d6 using tetramethylsilane as an internal standard. Specific rotations were measured with a JASCO P-2300 spectrometer (JASCO Co., Tokyo, Japan). Liquid column chromatography was conducted on silica gel (Fuji Silysia FL-60D). Analytical thin layer chromatography (TLC) was performed on Silicagel 70 F254 plates (Wako Pure Chemical Industries, Tokyo, Japan), and compounds were detected by dipping the plates into an ethanolic solution of phosphomolybdic acid followed by heating. Microwave (MW)-aided reactions were carried out in a Biotage Initiator® reactor (PartnerTech Atvidaberg AB for Biotage Sweden AB, Uppsala, Sweden). NaBH4 and trifluoroacetic acid (TFA) were purchased from Wako Pure Chemical Industries (Wako Pure Chemical Industries, Tokyo, Japan). BF3·Et2O was purchased from Sigma-Aldrich Co., LLC (St. Lewis, MO, USA). DMP was purchased from TCI (Tokyo Chemical Industry Co., Ltd., Tokyo, Japan). […] Deoxygalactonojirimycin was purchased from Funakoshi Co., Ltd., Tokyo, Japan).
(§2) After 20 min incubation at 37 °C, the reaction was quenched by addition of Na2CO3 solution (0.5 M, 100 μL). The amount of liberated p-nitrophenol was measured colorimetrically at 400 nm (optical density at 400 nm: ODtest).
Assays of β-glucosidase, α-mannosidase, β-mannosidase, and β-galactosidase inhibitory activities were carried out as above using p-nitrophenyl-β-D-glucopyranoside, p-nitrophenyl-α-D-mannopyranoside, p-nitrophenyl-β-D-mannopyranoside, and p-nitrophenyl-β-D-galactopyranoside as substrates.

α-glucosidase (Yeast) [2] = target: T1, α-glucosidase (Yeast) (Saccharomyces cerevisiae, UniProt P53341); experiment: α-glucosidase inhibitory activity assay (p-nitrophenyl-α-D-glucopyranoside); format: biochemical
Excerpt: (§3) The synthesized compounds were subjected to glycosidase inhibitory activity assays (Table 1). Herein, α-galactosidase (from green coffee bean) and β-galactosidase (from bovine lever) were used in addition to the three previously employed glycosidases (α-glucosidase, β-glucosidase, and α-mannosidase). To facilitate comparison across studies, we used the same batches of the three abovementioned glycosidases as those employed before. Some compounds were not tested against all five enzymes because of the limited amount of materials.
as §1, §2

[3] = target: T2, α-mannosidase (Jack Bean) (Canavalia ensiformis, UniProt C0HJB3); conditions: read-out: IC50 (M) α-mannosidase (Jack Bean); values of a previous work; cited from earlier work
T2 construct: purchased Sigma-Aldrich Co., LLC lot 055K7047 (catalogue number not given)

[4] = target: β-glucosidase (Sweet Almond); parameters: method as in PMID 28124983; conditions: values of a previous work; cited from earlier work
[5] = target: T3, β-galactosidase (Bovine Liver) (Bos taurus, UniProt Q58D55); experiment: β-galactosidase inhibitory activity assay (p-nitrophenyl-β-D-galactopyranoside); format: biochemical
T3 sequence (Q58D55 28-653): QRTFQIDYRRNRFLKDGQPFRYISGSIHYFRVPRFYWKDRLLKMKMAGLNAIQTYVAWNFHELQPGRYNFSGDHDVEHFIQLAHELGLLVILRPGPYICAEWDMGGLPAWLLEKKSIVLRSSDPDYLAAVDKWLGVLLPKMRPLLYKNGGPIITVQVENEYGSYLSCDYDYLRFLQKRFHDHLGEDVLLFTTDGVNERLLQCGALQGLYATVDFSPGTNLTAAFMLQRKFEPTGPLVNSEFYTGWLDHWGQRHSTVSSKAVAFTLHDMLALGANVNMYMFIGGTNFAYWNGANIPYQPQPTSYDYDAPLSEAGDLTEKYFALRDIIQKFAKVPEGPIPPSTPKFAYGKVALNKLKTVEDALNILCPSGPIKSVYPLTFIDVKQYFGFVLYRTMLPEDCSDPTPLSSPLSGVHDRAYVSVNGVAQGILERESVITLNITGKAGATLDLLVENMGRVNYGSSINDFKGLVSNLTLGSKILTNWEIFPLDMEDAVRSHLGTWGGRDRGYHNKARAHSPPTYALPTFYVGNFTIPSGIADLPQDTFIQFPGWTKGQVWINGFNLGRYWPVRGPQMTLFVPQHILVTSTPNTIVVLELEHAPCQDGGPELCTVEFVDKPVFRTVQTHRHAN
Excerpt: as §3
Infrared (IR) spectra were recorded on a 1720X Fourier transformation-infrared (FT-IR) spectrometer (Perkin Elmer, MA, USA) or an IRAffinity-1S FT-IR spectrometer (Shimadzu, Kyoto, Japan). High-resolution mass spectra (HRMS) were recorded on a JMS-700 (2) mass spectrometer (JEOL, Tokyo, Japan). Nuclear magnetic resonance (NMR) spectra were recorded at 27 °C on 400-MR-DD2 (Agilent Technologies, CA, USA) and 600-DD2 (Agilent Technologies, CA, USA) instruments in CDCl3 or acetone-d6 using tetramethylsilane as an internal standard. Specific rotations were measured with a JASCO P-2300 spectrometer (JASCO Co., Tokyo, Japan). […]
After 20 min incubation at 37 °C, the reaction was quenched by addition of Na2CO3 solution (0.5 M, 100 μL). The amount of liberated p-nitrophenol was measured colorimetrically at 400 nm (optical density at 400 nm: ODtest). […]

α-glucosidase (Yeast) [6] = target: T1, α-glucosidase (Yeast); conditions: cited from earlier work; for IC50: values of a previous work

T2 sequence (C0HJB3 1-562): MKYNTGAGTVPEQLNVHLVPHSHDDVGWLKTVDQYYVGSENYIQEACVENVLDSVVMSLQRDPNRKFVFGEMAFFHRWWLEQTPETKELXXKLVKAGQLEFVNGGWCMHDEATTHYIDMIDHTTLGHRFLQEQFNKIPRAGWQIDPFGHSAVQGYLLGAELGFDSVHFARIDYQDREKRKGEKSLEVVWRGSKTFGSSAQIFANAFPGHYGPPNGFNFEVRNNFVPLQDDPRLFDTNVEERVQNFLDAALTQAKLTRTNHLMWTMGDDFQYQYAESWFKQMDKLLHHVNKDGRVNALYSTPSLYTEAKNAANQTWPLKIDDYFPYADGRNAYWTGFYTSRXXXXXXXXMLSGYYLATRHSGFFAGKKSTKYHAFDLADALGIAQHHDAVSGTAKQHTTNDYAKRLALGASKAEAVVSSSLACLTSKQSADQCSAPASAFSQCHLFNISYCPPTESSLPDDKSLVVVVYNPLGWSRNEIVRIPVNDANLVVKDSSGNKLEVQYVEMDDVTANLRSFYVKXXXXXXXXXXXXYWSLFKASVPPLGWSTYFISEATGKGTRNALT
T2 sequence (C0HJB3 563-981): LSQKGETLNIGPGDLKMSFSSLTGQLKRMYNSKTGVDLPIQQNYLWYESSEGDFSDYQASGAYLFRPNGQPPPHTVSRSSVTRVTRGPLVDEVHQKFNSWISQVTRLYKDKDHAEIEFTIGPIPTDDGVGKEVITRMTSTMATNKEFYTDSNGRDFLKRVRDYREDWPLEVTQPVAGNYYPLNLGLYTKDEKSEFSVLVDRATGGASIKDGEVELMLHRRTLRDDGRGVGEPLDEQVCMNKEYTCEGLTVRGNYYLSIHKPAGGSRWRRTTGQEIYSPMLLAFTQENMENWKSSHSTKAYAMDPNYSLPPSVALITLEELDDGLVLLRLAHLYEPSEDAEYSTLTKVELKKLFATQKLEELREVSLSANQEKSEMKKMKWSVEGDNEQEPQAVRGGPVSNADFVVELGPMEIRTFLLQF
T1 sequence (P53341 whole entry): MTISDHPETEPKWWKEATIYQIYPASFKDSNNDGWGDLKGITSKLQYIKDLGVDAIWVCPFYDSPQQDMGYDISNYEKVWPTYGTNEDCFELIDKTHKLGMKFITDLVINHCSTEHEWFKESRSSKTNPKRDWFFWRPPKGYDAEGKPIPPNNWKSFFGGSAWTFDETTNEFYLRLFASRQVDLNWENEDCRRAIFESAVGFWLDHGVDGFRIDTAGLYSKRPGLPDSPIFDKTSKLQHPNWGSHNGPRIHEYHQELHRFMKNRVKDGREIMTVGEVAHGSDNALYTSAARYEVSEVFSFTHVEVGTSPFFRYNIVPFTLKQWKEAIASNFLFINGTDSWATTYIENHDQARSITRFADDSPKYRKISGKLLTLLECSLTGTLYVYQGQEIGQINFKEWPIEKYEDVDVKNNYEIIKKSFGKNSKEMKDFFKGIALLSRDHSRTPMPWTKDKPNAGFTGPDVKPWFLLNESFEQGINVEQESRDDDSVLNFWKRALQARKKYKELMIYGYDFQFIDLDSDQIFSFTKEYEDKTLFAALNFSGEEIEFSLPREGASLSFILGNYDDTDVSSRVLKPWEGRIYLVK

In the case of COC(=O)C1=CC(O)C(O)C(O)C1OC1C(OC)C(C(=O)OC)=CC(O)C1O (single isomer, unassigned; (+)) [(+)-6], the IC50 [1] is reported as […] and the “α-glucosidase inhibitory activity (in words)” value (α-glucosidase (Yeast) [2]) is reported as “moderately inhibited”.

In the case of COC(=O)C1=CC(O)C(O)C(OC2C(C(=O)OC)=CC(O)C(O)C2O)C1Cl (single isomer, unassigned; (-)) [(−)-5], the IC50 [3] is listed as over 0.0078 M and the IC50 [4] is listed as over 7.8 mM.

For COC(=O)C1=CC(O)C(O)C(O)C1OC1C(OC)C(C(=O)OC)=CC(O)C1O (single isomer, unassigned; (-)) [(−)-7], the IC50 [1] was […] and the “α-glucosidase inhibitory activity (in words)” value (α-glucosidase (Yeast) [2]) was “moderately inhibited”.

With COC(=O)C1=CC(O)C(O)C(O)C1OC1C(OC)C(C(=O)OC)=CC(O)C1O (single isomer, unassigned; (-)) [(−)-8] the IC50 [1] was […] and the “α-glucosidase inhibitory activity (in words)” value (α-glucosidase (Yeast) [2]) was “moderately inhibited”.

For COC(=O)C1=CC(O)C(O)C(O)C1OC1C(OC)C(C(=O)OC)=CC(O)C1O (single isomer, unassigned; (-)) [(−)-24], the IC50 [1] was […], the “β-galactosidase inhibitory activity (in words)” value [5] was “showed β-galactosidase inhibitory activities” and the “α-glucosidase inhibitory activity (in words)” value (α-glucosidase (Yeast) [2]) was “moderately inhibited”.

In the case of COC(=O)C1=C[C@H](O)[C@H](O)[C@H](O[C@H]2C(C(=O)OC)=C[C@@H](O)[C@@H](O)[C@H]2O)[C@H]1Cl [(+)-4, (+)-pericosine E], the IC50 [3] is given as over 0.0078 M, the “α-glucosidase inhibitory activity (in words)” value (α-glucosidase (Yeast) [6]) is given as “potent activity” and the IC50 (α-glucosidase (Yeast) [6]) is given as 0.031 mM. For the same molecule, the IC50 [4] was over 7.8 mM.

For COC(=O)C1=C[C@@H](O)[C@@H](O)[C@@H](O[C@@H]2C(C(=O)OC)=C[C@H](O)[C@H](O)[C@@H]2O)[C@@H]1Cl [(−)-4, (−)-pericosine E], the IC50 [3] is given as over 0.0078 M, the IC50 (α-glucosidase (Yeast) [6]) is given as 1.5 mM and the IC50 [4] is given as over 7.8 mM.

Molecule OC[C@H]1NC[C@H](O)[C@@H](O)[C@H]1O [Deoxygalactonojirimycin, reference compound] has an IC50 [5] of 0.14 mM.

OC[C@H]1NC[C@H](O)[C@@H](O)[C@@H]1O [Deoxynojirimycin (DNJ), 1-Deoxynojirimycin, reference compound] showed an IC50 [1] of […].
